Experimental data published in paper PMC5784132, “Investigation of 20S-hydroxyvitamin D3 analogs and their 1α-OH derivatives as potent vitamin D receptor agonists with anti-inflammatory activities” (Scientific Reports, 2018).
Where two headings read alike, the source gives them in different places.

How the values were obtained:
rat CYP24A1 = molecular target: T1, rat CYP24A1 (Rattus norvegicus, UniProt Q09128); experiment: Time courses and product profiles for metabolism of analogs by rat CYP24A1; format: in vitro ADME
T1 construct: made in house; host or cells: E. coli
T1 sequence (Q09128 36-514): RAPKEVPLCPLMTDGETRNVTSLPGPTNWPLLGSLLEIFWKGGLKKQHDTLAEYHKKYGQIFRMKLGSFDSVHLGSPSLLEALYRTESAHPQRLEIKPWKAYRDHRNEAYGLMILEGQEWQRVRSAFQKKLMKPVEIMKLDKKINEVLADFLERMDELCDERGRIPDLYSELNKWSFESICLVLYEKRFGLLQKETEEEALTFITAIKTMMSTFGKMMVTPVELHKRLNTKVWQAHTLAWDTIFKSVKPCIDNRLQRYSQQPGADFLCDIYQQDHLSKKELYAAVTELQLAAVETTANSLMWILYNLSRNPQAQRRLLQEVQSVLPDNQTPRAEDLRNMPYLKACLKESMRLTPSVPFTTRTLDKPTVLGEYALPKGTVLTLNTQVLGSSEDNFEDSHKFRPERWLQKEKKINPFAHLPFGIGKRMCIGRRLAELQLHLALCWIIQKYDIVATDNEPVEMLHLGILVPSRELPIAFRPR
From the text: These were identified from authentic standards as 20S,25(OH)2D3, and the two C24 diastereomers of 20S,24(OH)2D3[23],[27]. One of the C24 diastereomers, 20S,24 R(OH)2D3 is the major product and accounts for almost 70% of the total products. […] There were two major products formed from this analog, RT27 and RT30 (indicated by arrows), which accounted for approximately 20% and 30% of the total products, respectively. Compound 23 (Fig. S1E) was converted to at least 6 different products by the incubation with CYP24A1. In contrast, 13 tested under identical conditions generated only one major product with a retention time of 20 min (RT20) and three minor products (Fig. S1D). By 10 min of incubation, almost all of 13 had been metabolized by CYP24A1.
The activity of CYP24A1 with the different analogs was determined as a function of time to determine the initial linear region that could be used for kinetic studies, and to determine any differences in the pattern between analogs. […] The major product of 13 (Fig. S1C, RT20), accounted for 71% of the total secosteroids (products and substrate) at one min and by 20 min it was 95% of all secosteroids. The time course for 20S(OH)D3 in comparison to 4 and 33, reached maximum product formation early in the incubation, with the amount of product at the end of the incubation being only 2.2-fold higher than at one min. By 20 min, less than 15% of the 20S(OH)D3 had been metabolized. […] While initially being metabolized at the lowest rate of any of the analogs, 33 maintained its initial rate longer with more product being present at the end of the 20 min incubation than for any of the other analogs except 13 (Fig. 6).
Figure 6 Time courses for metabolism of 20S(OH)D3 analogs in phospholipid vesicles by rat CYP24A1. 20S(OH)D3, 4, 13, 23 and 33 were incorporated into phospholipid vesicles at a ratio of 0.018 mol/mol phospholipid and incubated with 0.14 µM rat CYP24A1 at 37 °C. Products were analyzed by HPLC.
Rat CYP24A1, mouse CYP27B1 and adrenodoxin and human adrenodoxin reductase were expressed in E. coli and purified as described before[28],[30],[35]. […] Samples from incubations with CYP24A1 were extracted with dichloromethane and analysed by HPLC using a 25 cm Grace Alltima C18 column, as before[27],[28]. […] Products from incubations with CYP27B1 were similarly extracted with dichloromethane and analyzed by reverse phase HPLC using a 15 cm Grace Smart C18 column and an acetonitrile in water gradient (10 min 45% to 100% acetonitrile then 20 min at 100% acetonitrile, at 0.5 mL/min).
Supplementary Fig. S1. […] Samples were analyzed by reverse-phase HPLC using an acetonitrile in water gradient as described in the Methods. […]

[1] = rats; cited from earlier work
[2] = design: method as in earlier work; settings: mice, doses as high as 60 µg/kg; cited from earlier work
[3] = system: collagen-induced arthritis; design: method as in earlier work; settings: mouse model, dose as low as 2 µg/kg; cited from earlier work

amount of product at end of incubation relative to one min (rat CYP24A1; 20 min incubation versus one min)	substrate metabolized by CYP24A1 (rat CYP24A1; by 20 min)	substrate metabolized by CYP24A1 (rat CYP24A1; by 10 min of incubation)	metabolism by CYP24A1 relative to 20S(OH)D3 (rat CYP24A1; by 20 min, fold greater than 20S(OH)D3)	Structure (SMILES)	hypercalcemia [1]	hypercalcemia [2]	effect on collagen-induced arthritis [3]
2.2 fold	less than 15%	–	–	C=C1CC[C@H](O)C/C1=C/C=C1\CCC[C@@]2(C)[C@H]1CC[C@@H]2[C@@](C)(O)CCCC(C)C [20S(OH)D3, 20S-hydroxyvitamin D3]	does not cause hypercalcemia	does not cause hypercalcemia	suppressive effects
–	–	almost all	6 fold	C=C1CC[C@H](O)C/C1=C/C=C1\CCC[C@@]2(C)[C@H]1CC[C@@H]2[C@@](C)(O)CCOC(C)C [compound 13]	–	–	–
